Source: US10085973B2, “Pharmaceutical composition containing a compound having a thrombopoietin receptor agonistic activity” (Shionogi & Co., Ltd., priority 2012, dated 2018)
≈ marks a conversion by molar mass, not a printed value. Where two headings read alike, the source gives them in different places.

Legend:
[1] = PK model from phase 1 trial in healthy male adults (plasma concentration); format: in vivo, human
Excerpt: (§1) Using the plasma concentration of the drug and the platelet count data of 54 cases obtained in phase 1 trial carried out in Japan to healthy male adults, a PK/PD model was constructed that can describe pharmacokinetics and a profile of a platelet count. The PK model describing pharmacokinetics was a three-compartment model including three compartments in the absorption process in order to explain the delay in absorption. The PD model describing the relation between the plasma concentration and the profile of platelets counts was a model including five compartments in order to explain the maturation process of platelets. […] We assumed that the distributions of respective model parameters and the distributions of the residual errors of the models follow a log-normal distribution. Parameters were estimated by using the first order conditional estimation method with interaction in a software NONMEM (version VI, level 2.0).

platelet count [2] = experiment: PD model from phase 1 trial in healthy male adults (profile of platelet count); format: in vivo, human; settings: for EC50: Homo sapiens, Platelet, read-out: EC50 (sigmoid Emax model), mean
Excerpt: as §1

platelet count [3] = experiment: Estimated PD model parameters for chronic liver disease patients (for Monte-Carlo simulation); parameters: species or system human
Excerpt: Based on the PK/PD model in healthy adults as described in (Test Example 1), model parameters in chronic liver disease patients were estimated on the basis of the following assumptions.
Based on the pre-defined level of platelet count expected in chronic liver disease patients, the average and range of PLT0 were set to 3×10^4/μL and 2×10^4 to 4.9×10^4/μL, respectively.
It was reported that platelets destruction in chronic liver disease patients was promoted (see Reference 1) and the survival period of platelets was about ⅔ of that of healthy adults (see References 2 and 3). Therefore, kdeg, a parameter representing the elimination rate of platelets, was set to the value which was about 1.5 times of the value of healthy adults, i.e. 0.009 hr^−1. In addition, based on the relationship that the production rate of platelets is equal to the elimination rate of platelets at baseline, kpr, a parameter representing the production rate of platelets, was calculated from the formula: PLT0×kdeg. As a result, kpr was 0.027×10^4/μL/hr which was lower than the value in healthy adults (0.116×10^4/μL/hr). This estimated value matched the previous report that the production rate of platelets was decreased in chronic liver disease patients (see Reference 1).
It was assumed that a parameter km representing the maturation rate of platelets in chronic liver disease patients is similar to that in healthy adults. Therefore, the estimated value in healthy adults was used as km.
When the plasma concentration is sufficiently lower than EC50 (EC50>>C), the drug efficacy of lusutrombopag can be approximated by Emax/EC50. It was assumed based on the clinical data of eltrombopag, a drug having the same efficacy (see References 4 and 5) that Emax/EC50 in this trial was about 3 times of the value of healthy adults. […] Meanwhile, it was assumed that r in the patients was similar to that in healthy adults. Therefore, the value in healthy adults was used as r.
A reduction in the production rate of platelets with an increase in platelets, i.e. the negative feedback phenomenon, is represented by the formula (PLT0/PLT)^γ. […] Therefore, the negative feedback phenomenon was not taken into account in the present simulation.
As inter-individual variability of the respective PD parameters, the values in healthy adults were used.
The intra-individual variability of plasma concentration was not taken into account in the present simulation. As the intra-individual variability of a platelet count, the value in healthy adults was used.

In the case of `CCCCCCO[C@@H](C)c1cccc(-c2csc(NC(=O)c3cc(Cl)c(/C=C(\C)C(=O)O)c(Cl)c3)n2)c1OC` [lusutrombopag, (E)-3-[2,6-dichloro-4-[4-[3-[(S)-1-hexyloxyethyl]-2-methoxyphenyl]-thiazol-2-ylcarbamoyl]-phenyl]-2-methylacrylic acid], the “CL (apparent total clearance), mean” value [1] is reported as 0.776 L/h, the “Intra-individual variability (PK model, plasma concentration)” value [1] is reported as 12.1% and the “Q3/F (inter-compartmental clearance), mean” value [1] is reported as 0.946 L/h. The “Q4/F (inter-compartmental clearance), mean” value [1] was 0.0262 L/h, the “V3/F (volume of distribution of peripheral compartment), mean” value [1] was 6.28 L and the “V4/F (volume of distribution of peripheral compartment), mean” value [1] was 2.71 L. The “ka (transfer rate constant from absorption compartments to central compartment), mean” value (“ka” below) ([1]; Fasting + solution) was 0.563 h⁻¹, the “ktr (inter-absorption-compartmental transfer rate constant), mean” value (“ktr” below) ([1]; Fasting + solution) was 4.19 h⁻¹ and the “ka” value ([1]; Postprandial + solution) was 0.285 h⁻¹. For the same compound, the “ktr” value ([1]; Postprandial + solution) was 2.15 h⁻¹, the “ka” value ([1]; Postprandial + tablet) was 0.854 h⁻¹ and the “ktr” value ([1]; Postprandial + tablet) was 1.38 h⁻¹. For the same compound, the Vd/F ([1]; male, human, plasma, oral, × (1 + (BW − 63) × 0.0172), BW body weight kg, read-out: V2/F (volume of distribution of the central compartment), mean) was 15.9 L, the “Emax (sigmoid Emax model), mean” value (platelet count [2]) was 3.52 and the “kdeg (elimination rate constant from the platelet compartment), mean” value (platelet count [2]) was 1.61e-06 s⁻¹. The “km (inter-PD-compartmental transfer rate constant), mean” value (platelet count [2]) was 0.0394 h⁻¹, the “r (sigmoid Emax model), mean” value (platelet count [2]) was 2.03 and the EC50 (platelet count [2]; 50 mg/dose) was 0.0216 mg/L (≈ 0.0365 µM). For the same compound, the EC50 (platelet count [2]; <50 mg/dose) was 0.0647 mg/L (≈ 0.109 µM), the “kdeg, mean” value (platelet count [3]; about 1.5 times of healthy adults) was 2.5e-06 s⁻¹ and the “EC50, mean” value (platelet count [3]; set by assumption) was 0.18 mg/L (≈ 0.304 µM). The “Emax, mean” value (platelet count [3]; set by assumption) was 29.3, the “km, mean” value (platelet count [3]; value of healthy adults) was 0.0394 h⁻¹ and the “r, mean” value (platelet count [3]; value of healthy adults) was 2.03.
